From ChEMBL document CHEMBL4699440, “Comprehensive review on the anti-bacterial activity of 1,2,3-triazole hybrids” (Eur J Med Chem, 2019)
Converted amounts (≈) assume the structure as drawn. Values belong to the molecule of their own block, whether it stands above or below them.

Assays:
Escherichia coli [1] = experiment: Antibacterial activity against Escherichia coli ATCC 25922 incubated for 24 hrs by tube dilution method; format: functional
Klebsiella pneumoniae [2] = experiment: Antibacterial activity against Klebsiella pneumoniae ATCC 15380 incubated for 24 hrs by tube dilution method; format: functional
Pseudomonas aeruginosa [3] = experiment: Antibacterial activity against Pseudomonas aeruginosa ATCC 12454 incubated for 24 hrs by tube dilution method; format: functional
Streptococcus pyogenes = experiment: Antibacterial activity against Streptococcus pyogenes ATCC 35552 incubated for 24 hrs by tube dilution method; format: functional
Staphylococcus aureus [4] = experiment: Antibacterial activity against Staphylococcus aureus ATCC 25923 incubated for 24 hrs by tube dilution method; format: functional
Staphylococcus aureus [5] = experiment: Antibacterial activity against Staphylococcus aureus RCMB 010025 by broth dilution method; format: functional
Escherichia coli [6] = experiment: Antibacterial activity against Escherichia coli RCMB 010052 by broth dilution method; format: functional
Streptococcus pneumoniae = experiment: Antibacterial activity against Streptococcus pneumoniae RCMB 010010 by broth dilution method; format: functional
Pseudomonas aeruginosa [7] = experiment: Antibacterial activity against Pseudomonas aeruginosa RCMB 010043 by broth dilution method; format: functional
Bacillus subtilis = experiment: Antibacterial activity against Bacillus subtilis RCMB 010067 by broth dilution method; format: functional
Klebsiella pneumoniae [8] = experiment: Antibacterial activity against Klebsiella pneumonia RCMB 010058 by broth dilution method; format: functional
Curvularia lunata = experiment: Antifungal activity against Curvularia lunata NCIM 1131 incubated for 48 hrs; format: functional
Penicillium chrysogenum = experiment: Antifungal activity against Penicillium chrysogenum NCIM 723 incubated for 48 hrs; format: functional
Escherichia coli [9] = experiment: Antibacterial activity against Escherichia coli NCIM 2256 incubated for 24 hrs; format: functional
[10] = system: Sphingomonas paucimobilis; experiment: Antibacterial activity against Flavobacterium devorans ATCC 10829 incubated for 24 hrs; format: functional
Staphylococcus aureus [11] = experiment: Antibacterial activity against Staphylococcus aureus ATCC 29737 incubated for 24 hrs; format: functional
Aspergillus niger = experiment: Antifungal activity against Aspergillus niger NCIM 1196 incubated for 48 hrs; format: functional
Micrococcus luteus = experiment: Antibacterial activity against Micrococcus Luteus ATCC 398 incubated for 24 hrs; format: functional
Pseudomonas fluorescens = experiment: Antibacterial activity against Pseudomonas fluorescens NCIM 2173 incubated for 24 hrs; format: functional
Bacillus cereus [12] = experiment: Antibacterial activity against Bacillus cereus ATCC 6630 incubated for 24 hrs; format: functional
Salmonella enterica = experiment: Antibacterial activity against Salmonella enterica MTCC 3224 incubated overnight by broth dilution technique; format: functional, organism-based
Enterococcus faecalis = experiment: Antibacterial activity against Enterococcus faecalis MTCC 439 incubated overnight by broth dilution technique; format: functional, organism-based
Klebsiella pneumoniae [13] = experiment: Antibacterial activity against Klebsiella pneumoniae ATCC 700603 incubated overnight by broth dilution technique; format: functional, organism-based
Pseudomonas aeruginosa [14] = experiment: Antibacterial activity against Pseudomonas aeruginosa MTCC 2453 incubated overnight by broth dilution technique; format: functional, organism-based
Escherichia coli [15] = experiment: Antibacterial activity against Escherichia coli ATCC 25922 incubated overnight by broth dilution technique; format: functional, organism-based
Bacillus cereus [16] = experiment: Antibacterial activity against Bacillus cereus by agar dilution method; format: functional
Staphylococcus aureus [17] = experiment: Antibacterial activity against Staphylococcus aureus by agar dilution method; format: functional
Pseudomonas aeruginosa [18] = experiment: Antibacterial activity against Pseudomonas aeruginosa by agar dilution method; format: functional
Escherichia coli [19] = experiment: Antibacterial activity against Escherichia coli by agar dilution method; format: functional

- MIC (Escherichia coli [1]): 5.5 µg/mL (≈ 10.7 µM)
- MIC (Klebsiella pneumoniae [2]): 5.5 µg/mL (≈ 10.7 µM)
- MIC (Pseudomonas aeruginosa [3]): 5.5 µg/mL (≈ 10.7 µM)
- MIC (Streptococcus pyogenes): 5.5 µg/mL (≈ 10.7 µM)
- MIC (Staphylococcus aureus [4]): 5.5 µg/mL (≈ 10.7 µM)
SMILES: O=Cc1cn(-c2ccccc2)nc1-c1ccccc1OCc1cn(Cc2ccc(Br)cc2)nn1

- MIC (Staphylococcus aureus [5]): 4 µg/mL (≈ 8.55 µM)
- MIC (Escherichia coli [6]): 4 µg/mL (≈ 8.55 µM)
- MIC (Streptococcus pneumoniae): 4 µg/mL (≈ 8.55 µM)
- MIC (Pseudomonas aeruginosa [7]): 4 µg/mL (≈ 8.55 µM)
- MIC (Bacillus subtilis): 4 µg/mL (≈ 8.55 µM)
- MIC (Klebsiella pneumoniae [8]): 4 µg/mL (≈ 8.55 µM)
SMILES: OCCSc1nnc(-c2nnn(-c3ccccc3Cl)c2-c2nnc(SCCO)o2)o1

- MIC (Curvularia lunata): 2 µg/mL (≈ 5.24 µM)
- MIC (Penicillium chrysogenum): 2 µg/mL (≈ 5.24 µM)
- MIC (Escherichia coli [9]): 2 µg/mL (≈ 5.24 µM)
- MIC [10]: 2 µg/mL (≈ 5.24 µM)
- MIC (Staphylococcus aureus [11]): 2 µg/mL (≈ 5.24 µM)
- MIC (Aspergillus niger): 2 µg/mL (≈ 5.24 µM)
- MIC (Micrococcus luteus): 2 µg/mL (≈ 5.24 µM)
- MIC (Pseudomonas fluorescens): 2 µg/mL (≈ 5.24 µM)
- MIC (Bacillus cereus [12]): 2 µg/mL (≈ 5.24 µM)
SMILES: Cc1cc(OCc2cn(Cc3cccc(Cl)c3)nn2)cc2oc(=O)ccc12

- MIC (Escherichia coli [1]): 5.5 µg/mL (≈ 11.5 µM)
- MIC (Klebsiella pneumoniae [2]): 5.5 µg/mL (≈ 11.5 µM)
- MIC (Pseudomonas aeruginosa [3]): 5.5 µg/mL (≈ 11.5 µM)
- MIC (Streptococcus pyogenes): 5.5 µg/mL (≈ 11.5 µM)
- MIC (Staphylococcus aureus [4]): 5.5 µg/mL (≈ 11.5 µM)
SMILES: O=Cc1cn(-c2ccccc2)nc1-c1ccccc1OCc1cn(Cc2ccc(C(=O)O)cc2)nn1

- MIC (Staphylococcus aureus [5]): 31.2 µg/mL (≈ 63 µM)
- MIC (Escherichia coli [6]): 31.2 µg/mL (≈ 63 µM)
- MIC (Streptococcus pneumoniae): 31.2 µg/mL (≈ 63 µM)
- MIC (Pseudomonas aeruginosa [7]): 31.2 µg/mL (≈ 63 µM)
- MIC (Bacillus subtilis): 31.2 µg/mL (≈ 63 µM)
- MIC (Klebsiella pneumoniae [8]): 31.2 µg/mL (≈ 63 µM)
SMILES: CCOCSc1nnc(-c2nnn(-c3ccccc3Cl)c2-c2nnc(SCOCC)o2)o1

- IC50 (Salmonella enterica): 164 µg/mL (≈ 495 µM)
- IC50 (Enterococcus faecalis): 164 µg/mL (≈ 495 µM)
- IC50 (Klebsiella pneumoniae [13]): 164 µg/mL (≈ 495 µM)
- IC50 (Pseudomonas aeruginosa [14]): 164 µg/mL (≈ 495 µM)
- IC50 (Escherichia coli [15]): 164 µg/mL (≈ 495 µM)
SMILES: COc1ccc(-n2cc(COc3cccc4cccnc34)nn2)cc1

- MIC (Curvularia lunata): 2 µg/mL (≈ 5.44 µM)
- MIC (Penicillium chrysogenum): 2 µg/mL (≈ 5.44 µM)
- MIC (Escherichia coli [9]): 2 µg/mL (≈ 5.44 µM)
- MIC [10]: 2 µg/mL (≈ 5.44 µM)
- MIC (Staphylococcus aureus [11]): 2 µg/mL (≈ 5.44 µM)
- MIC (Aspergillus niger): 2 µg/mL (≈ 5.44 µM)
- MIC (Micrococcus luteus): 2 µg/mL (≈ 5.44 µM)
- MIC (Pseudomonas fluorescens): 2 µg/mL (≈ 5.44 µM)
- MIC (Bacillus cereus [12]): 2 µg/mL (≈ 5.44 µM)
SMILES: O=c1cc(OCc2cn(Cc3cccc(Cl)c3)nn2)c2ccccc2o1

- MIC (Escherichia coli [1]): 5.5 µg/mL (≈ 11.4 µM)
- MIC (Klebsiella pneumoniae [2]): 5.5 µg/mL (≈ 11.4 µM)
- MIC (Pseudomonas aeruginosa [3]): 5.5 µg/mL (≈ 11.4 µM)
- MIC (Streptococcus pyogenes): 5.5 µg/mL (≈ 11.4 µM)
- MIC (Staphylococcus aureus [4]): 5.5 µg/mL (≈ 11.4 µM)
SMILES: Cc1ccc(OCc2cn(Cc3cccc(Cl)c3)nn2)c(-c2nn(-c3ccccc3)cc2C=O)c1

- MIC (Escherichia coli [1]): 6.5 µg/mL (≈ 14 µM)
- MIC (Klebsiella pneumoniae [2]): 6.5 µg/mL (≈ 14 µM)
- MIC (Pseudomonas aeruginosa [3]): 6.5 µg/mL (≈ 14 µM)
- MIC (Streptococcus pyogenes): 6.5 µg/mL (≈ 14 µM)
- MIC (Staphylococcus aureus [4]): 6.5 µg/mL (≈ 14 µM)
SMILES: COc1ccc(Cn2cc(COc3ccccc3-c3nn(-c4ccccc4)cc3C=O)nn2)cc1

- MIC (Escherichia coli [1]): 5.5 µg/mL (≈ 11.7 µM)
- MIC (Klebsiella pneumoniae [2]): 5.5 µg/mL (≈ 11.7 µM)
- MIC (Pseudomonas aeruginosa [3]): 5.5 µg/mL (≈ 11.7 µM)
- MIC (Streptococcus pyogenes): 5.5 µg/mL (≈ 11.7 µM)
- MIC (Staphylococcus aureus [4]): 5.5 µg/mL (≈ 11.7 µM)
SMILES: O=Cc1cn(-c2ccccc2)nc1-c1cc(Cl)ccc1OCc1cn(Cc2ccccc2)nn1

- MIC (Staphylococcus aureus [5]): 4 µg/mL (≈ 7.58 µM)
- MIC (Escherichia coli [6]): 4 µg/mL (≈ 7.58 µM)
- MIC (Streptococcus pneumoniae): 4 µg/mL (≈ 7.58 µM)
- MIC (Pseudomonas aeruginosa [7]): 4 µg/mL (≈ 7.58 µM)
- MIC (Bacillus subtilis): 4 µg/mL (≈ 7.58 µM)
- MIC (Klebsiella pneumoniae [8]): 4 µg/mL (≈ 7.58 µM)
SMILES: OCC(O)CSc1nnc(-c2nnn(-c3ccccc3Cl)c2-c2nnc(SCC(O)CO)o2)o1 (centres undefined)

- MIC (Staphylococcus aureus [5]): 31.2 µg/mL (≈ 53.9 µM)
- MIC (Escherichia coli [6]): 31.2 µg/mL (≈ 53.9 µM)
- MIC (Streptococcus pneumoniae): 31.2 µg/mL (≈ 53.9 µM)
- MIC (Pseudomonas aeruginosa [7]): 31.2 µg/mL (≈ 53.9 µM)
- MIC (Bacillus subtilis): 31.2 µg/mL (≈ 53.9 µM)
- MIC (Klebsiella pneumoniae [8]): 31.2 µg/mL (≈ 53.9 µM)
SMILES: CC(=O)OCCCSc1nnc(-c2nnn(-c3ccccc3Cl)c2-c2nnc(SCCCOC(C)=O)o2)o1

- MIC (Escherichia coli [1]): 5.5 µg/mL (≈ 12.2 µM)
- MIC (Klebsiella pneumoniae [2]): 5.5 µg/mL (≈ 12.2 µM)
- MIC (Pseudomonas aeruginosa [3]): 5.5 µg/mL (≈ 12.2 µM)
- MIC (Streptococcus pyogenes): 5.5 µg/mL (≈ 12.2 µM)
- MIC (Staphylococcus aureus [4]): 5.5 µg/mL (≈ 12.2 µM)
SMILES: Cc1ccc(OCc2cn(Cc3ccccc3)nn2)c(-c2nn(-c3ccccc3)cc2C=O)c1

- MIC (Curvularia lunata): 2 µg/mL (≈ 5.76 µM)
- MIC (Penicillium chrysogenum): 2 µg/mL (≈ 5.76 µM)
- MIC (Escherichia coli [9]): 2 µg/mL (≈ 5.76 µM)
- MIC [10]: 2 µg/mL (≈ 5.76 µM)
- MIC (Staphylococcus aureus [11]): 2 µg/mL (≈ 5.76 µM)
- MIC (Aspergillus niger): 2 µg/mL (≈ 5.76 µM)
- MIC (Micrococcus luteus): 2 µg/mL (≈ 5.76 µM)
- MIC (Pseudomonas fluorescens): 2 µg/mL (≈ 5.76 µM)
- MIC (Bacillus cereus [12]): 2 µg/mL (≈ 5.76 µM)
SMILES: Cc1cc(OCc2cn(Cc3ccccc3)nn2)cc2oc(=O)ccc12

- MIC (Curvularia lunata): 2 µg/mL (≈ 5.29 µM)
- MIC (Penicillium chrysogenum): 2 µg/mL (≈ 5.29 µM)
- MIC (Escherichia coli [9]): 2 µg/mL (≈ 5.29 µM)
- MIC [10]: 2 µg/mL (≈ 5.29 µM)
- MIC (Staphylococcus aureus [11]): 2 µg/mL (≈ 5.29 µM)
- MIC (Aspergillus niger): 2 µg/mL (≈ 5.29 µM)
- MIC (Micrococcus luteus): 2 µg/mL (≈ 5.29 µM)
- MIC (Pseudomonas fluorescens): 2 µg/mL (≈ 5.29 µM)
- MIC (Bacillus cereus [12]): 2 µg/mL (≈ 5.29 µM)
SMILES: O=c1cc(OCc2cn(Cc3cccc([N+](=O)[O-])c3)nn2)c2ccccc2o1

- MIC (Staphylococcus aureus [5]): 31.2 µg/mL (≈ 44.9 µM)
- MIC (Escherichia coli [6]): 31.2 µg/mL (≈ 44.9 µM)
- MIC (Streptococcus pneumoniae): 31.2 µg/mL (≈ 44.9 µM)
- MIC (Pseudomonas aeruginosa [7]): 31.2 µg/mL (≈ 44.9 µM)
- MIC (Bacillus subtilis): 31.2 µg/mL (≈ 44.9 µM)
- MIC (Klebsiella pneumoniae [8]): 31.2 µg/mL (≈ 44.9 µM)
SMILES: CC(=O)OCC(CSc1nnc(-c2nnn(-c3ccccc3Cl)c2-c2nnc(SCC(COC(C)=O)OC(C)=O)o2)o1)OC(C)=O (centres undefined)

- MIC (Bacillus cereus [16]): 8 µg/mL (≈ 15.7 µM)
- MIC (Staphylococcus aureus [17]): 8 µg/mL (≈ 15.7 µM)
- MIC (Pseudomonas aeruginosa [18]): 8 µg/mL (≈ 15.7 µM)
- MIC (Escherichia coli [19]): 8 µg/mL (≈ 15.7 µM)
SMILES: O=C(N/N=C/c1cn(-c2ccccc2)nc1-c1ccccc1)c1cccc(-n2cc(-c3ccccc3)nn2)c1

- MIC (Curvularia lunata): 2 µg/mL (≈ 5.44 µM)
- MIC (Penicillium chrysogenum): 2 µg/mL (≈ 5.44 µM)
- MIC (Escherichia coli [9]): 2 µg/mL (≈ 5.44 µM)
- MIC [10]: 2 µg/mL (≈ 5.44 µM)
- MIC (Staphylococcus aureus [11]): 2 µg/mL (≈ 5.44 µM)
- MIC (Aspergillus niger): 2 µg/mL (≈ 5.44 µM)
- MIC (Micrococcus luteus): 2 µg/mL (≈ 5.44 µM)
- MIC (Pseudomonas fluorescens): 2 µg/mL (≈ 5.44 µM)
- MIC (Bacillus cereus [12]): 2 µg/mL (≈ 5.44 µM)
SMILES: O=c1cc(OCc2cn(Cc3ccc(Cl)cc3)nn2)c2ccccc2o1
